Experimental data: ChEMBL document CHEMBL3045199, “Synthesis of some (E)-6-[2-(furan-2-yl)ethenyl]-1,2,4-triazin-5-ones and their biological evaluation as antitumor agents” (2013)

Columns and labels:
Assay type in all cases: functional
RXF 393 = assay: Cytotoxicity against Homo sapiens (human) RXF393 cells assessed as growth inhibition at 10 uM after 24 hr; settings: RXF 393, 24 h, read-out: GI
IGROV-1 = assay: Cytotoxicity against Homo sapiens (human) IGROV1 cells assessed as growth inhibition at 10 uM after 24 hr; settings: IGROV-1, 24 h, read-out: GI
SK-MEL-2 = assay: Cytotoxicity against Homo sapiens (human) SK-MEL-2 cells assessed as growth inhibition at 10 uM after 24 hr; settings: SK-MEL-2, 24 h, read-out: GI
T47D = assay: Cytotoxicity against Homo sapiens (human) T47D cells assessed as growth inhibition at 10 uM after 24 hr; settings: read-out: GI
MDA-MB-468 = assay: Cytotoxicity against Homo sapiens (human) MDA-MB-468 cells assessed as growth inhibition at 10 uM after 24 hr; settings: MDA-MB-468, 24 h, read-out: GI
MCF7 = assay: Cytotoxicity against Homo sapiens (human) MCF7 cells assessed as growth inhibition at 10 uM after 24 hr; settings: MCF7, 24 h, read-out: GI
UO-31 = assay: Cytotoxicity against Homo sapiens (human) UO31 cells assessed as growth inhibition at 10 uM after 24 hr; settings: UO-31, 24 h, read-out: GI
HL-60(TB) = assay: Cytotoxicity against Homo sapiens (human) HL-60(TB) cells assessed as growth inhibition at 10 uM after 24 hr; settings: HL-60, 24 h, read-out: GI
OVCAR-8 = assay: Cytotoxicity against Homo sapiens (human) OVCAR8 cells assessed as growth inhibition at 10 uM after 24 hr; settings: OVCAR-8, 24 h, read-out: GI

SMILES: O=C(CSc1nc(=O)c(/C=C/c2ccco2)n[nH]1)c1ccc(Cl)cc1
- inhibition of growth at 10 µM (RXF 393): 62.5%
- inhibition of growth at 10 µM (IGROV-1): 80.4%
- inhibition of growth at 10 µM (SK-MEL-2): 42.3%
- inhibition of growth at 10 µM (T47D): 38.3%
- inhibition of growth at 10 µM (MDA-MB-468): 57.3%
- inhibition of growth at 10 µM (MCF7): 80.8%
- inhibition of growth at 10 µM (UO-31): 33.3%

SMILES: O=C1CC(=O)N(c2nc(=O)c(/C=C/c3ccco3)n[nH]2)N1
- inhibition of growth at 10 µM (HL-60(TB)): 54.3%

SMILES: Nn1c(=S)[nH]nc(/C=C/c2ccco2)c1=O
- inhibition of growth at 10 µM (OVCAR-8): 59.1%
- inhibition of growth at 10 µM (IGROV-1): 77%
- inhibition of growth at 10 µM (SK-MEL-2): 70.7%
- inhibition of growth at 10 µM (MCF7): 72.7%

SMILES: O=c1c(/C=C/c2ccco2)n[nH]c(=S)n1/N=C/c1ccc([N+](=O)[O-])cc1
- inhibition of growth at 10 µM (OVCAR-8): 47.8%
- inhibition of growth at 10 µM (IGROV-1): 75.6%
- inhibition of growth at 10 µM (SK-MEL-2): 70.3%
- inhibition of growth at 10 µM (MCF7): 73.1%
